Assay results reported in paper PMC4473678, “Swedish mutant APP-based BACE1 binding site peptide reduces APP β-cleavage and cerebral Aβ levels in Alzheimer’s mice” (Scientific Reports, 2015).
“Also recorded” adds a separate entry of the source.

Tests used:
5XFAD mice [1] = experiment: WB of APP processing products in brain homogenates, 5XFAD mice; type: in vivo, mouse; conditions: 8 weeks
Experimental: (§1) Transgenic AD mice [5XFAD; B6SJL-Tg(APPSwFlLon,PSEN1*M146L*L286V) 6799Vas/Mmjax] at 2.5 months of age were obtained from the Jackson Laboratory (Bar Harbor, ME) and housed and maintained in the Animal Facility of College of Medicine at University of South Florida (USF). The mice at 3.5 months of age were treated with TAT-APPsweBBP, TAT peptide (100 nmol/kg in 100 μL PBS) or PBS (100 μL) daily by intraperitioneal injection (i.p.) for eight consecutive weeks. The mice were subjected to behavioral testing after 8-week treatment and then euthanized for immunohistochemical, WB and ELISA analyses. Animals were housed and maintained at USF and all experiments were in compliance with protocols approved by USF Institutional Animal Care and Use Committee. All methods were performed in accordance with relevant guidelines and regulations.
WB analysis was performed as previously described. Briefly, the proteins from the various cell-free suspensions, cell lysates and brain homogenates were electrophoretically separated using 10% bicine/tris gel (8 M urea) for proteins less than 5 kD or 10% tricine/tris gels for larger proteins. Electrophoresed proteins were transferred to polyvinylidene difluoride membranes (Bio-Rad, Richmond, CA), washed and blocked for 2 h at room temperature in Tris-buffered saline containing 5% (w/v) nonfat dry milk (TBS/NFDM). After blocking, membranes were hybridized for 2 h with various primary antibodies, washed and incubated for 1 h with the appropriate HRP-conjugated secondary antibody in TBS/NFDM. Blots were developed using the luminol reagent (Thermo Fisher Scientific, Waltham, MA).

[2] = test system: recombinant BACE1 protein; experiment: Immunoprecipitation/WB of peptide-BACE1 binding, cell-free; conditions: 10 μg biotin-labeled peptide with 10 μL recombinant BACE1 (1.0 U/mL), 4 h, 37 °C; anti-BACE1 IP/anti-biotin WB and reverse; listed as TAT-APPsweBBP
Experimental: In order to confirm that APPsweBBP containing the β-cleavage site could bind to and be consequently proteolyzed by BACE1, 10 μg of biotin-labeled TAT-APPsweBBP was incubated with or without 10 μL of recombinant BACE1 protein (1.0 U/mL) in BACE1 reaction buffer for 4 h at 37 °C and then subjected to WB analysis as described previously. In addition, we performed immunoprecipitation (IP) and WB analyses of this mixture with anti-BACE1 and anti-biotin antibodies to confirm that TAT-APPsweBBP, but not TAT, specifically binds to BACE1.

5XFAD mice [3] = experiment: β-amyloid immunohistochemistry (4G8), 5XFAD mice; type: in vivo, mouse; conditions: 100 nmol/kg i.p. daily, 8 weeks, RSC, EC and H regions, n = 10, 5 female/5 male, listed as TAT-APPsweBBP
Experimental: as §1
For paraffin brain tissues, we sectioned five coronal sections per region with a 100-μm interval and a thickness of 5-μm for retrosplenial cortex (RSC), entorhinal cortex (EC), and hippocampus (H), located at bregma −2.92 to −3.64 mm. […] Images were acquired as digitized tagged-image format files (to retain maximum resolution) using a BX60 microscope with an attached CCD camera system (DP-70, Olympus, Tokyo, Japan), and digital images were routed into a Windows PC for quantitative analyses using SimplePCI software (Hamamatsu Photonics, Hamamatsu, Shizuoka, Japan). […]

[4] = test system: cortex and hippocampus of 5XFAD mice; experiment: Extracellular and intracellular peptide levels in brain (WB); type: in vivo, mouse; conditions: i.p., *P < 0.05, **P < 0.01, listed as TAT-APPsweBBP
Experimental: For specific extraction of extracellular versus intracellular proteins, hemibrains were harvested and placed in 500 μl of solution containing 50 mM Tris-HCl, pH 7.6, 0.01% NP-40, 150 mM NaCl, 2 mM EDTA, 0.1% SDS, 1 mM phenylmethylsulfonyl fluoride, and protease inhibitor cocktail (Sigma) as previously describe. Soluble, extracellular proteins were collected from mechanically homogenized lysates after centrifugation for 5 min at 3000 rpm. Cytoplasmic proteins were extracted from cell pellets mechanically dissociated with a micropipettor in 500 μl of TNT buffer (50 mM Tris-HCl, pH 7.6, 150 mM NaCl, and 0.1% Triton X-100) after centrifugation for 90 min at 13,000 rpm. Insoluble material was incubated with 20 μl of 70% formic acid, mechanically dissociated with a micropipette, gently agitated for 1 h, and buffered with 380 μl of 1 M Tris-HCl, pH 8.0. Samples were centrifuged for 90 min at 13,000 rpm, and supernatants were collected for analysis.
WB analysis was performed as previously described. Briefly, the proteins from the various cell-free suspensions, cell lysates and brain homogenates were electrophoretically separated using 10% bicine/tris gel (8 M urea) for proteins less than 5 kD or 10% tricine/tris gels for larger proteins. […]

5XFAD mice [5] = experiment: Rotarod test, 5XFAD mice; type: in vivo, mouse; conditions: 100 nmol/kg i.p. daily, 8 weeks, n = 10 per treatment, listed as TAT-APPsweBBP
Experimental: as §1
The rotarod task was also performed to exclude the possibility that positive effects of any treatment in RAWM test are due to improvements in sensorimotor ability. Mice were positioned on the rod (diameter 3.6 cm) of the equipment (Rotarod 7650 accelerating model; Ugo Basile, Biological Research Apparatus, Varese, Italy), which was initially set at 1.0 rpm. The rod was then allowed to steadily accelerate up to 40.0 rpm over a 3-min session and evaluation was made by monitoring latency to fall.

5XFAD mice [6] = experiment: Cerebral Aβ ELISA, 5XFAD mice; type: in vivo, mouse; conditions: 100 nmol/kg i.p. daily, 8 weeks, versus TAT or PBS, *P < 0.05, **P < 0.01, ***P < 0.005, listed as TAT-APPsweBBP
Experimental: as §1, with “All methods were performed in accordance with relevant guidelines and regulations.” left out
Mouse brains were homogenized in ice-cold lysis buffer for 30 s using a Minilys tissue homogenizer (Bertin Technologies, Montigny-le-Bretonneux, France) set at high speed, allowed to stand for 15 min at 4 °C, and centrifuged at 15000 rpm for 30 min. Soluble Aβ1−40/42 species and sAPPα were directly detected in cultured cell media or brain homogenates using the Aβ1−40/42 (Invitrogen) and sAPPα ELISA kits (IBL-America, Minneapolis, MN). Detergent-insoluble total […] species were detected in brain by extracting pellets in 5 M guanidine HCl buffer, followed by a 1:20 dilution in lysis buffer.

[7] = WB 6E10, listed as TAT-APPsweBBP

## YGRKKRRQRRREISEVNLDAEFR [APPsweBBP conjugated with the membrane fusion fragment of HIV-1 Tat protein]
5XFAD mice [1]; [7]
  total cerebral soluble Aβ (Aβs) by WB: much lower levels; also recorded: reduced total cerebral soluble Aβ
  β-CTF by WB: much lower levels; also recorded: reduced
5XFAD mice [1]; densitometry, versus TAT and PBS, **P < 0.01
  band density ratio of β-CTF to holo-APP: significantly reduces the band density ratios of β-CTF to holo-APP, compared to TAT- and PBS-treatments (**P < 0.01)
5XFAD mice [1]; listed as TAT-APPsweBBP
  total APP expression by WB: without notable alteration on total APP expression; also recorded: without significantly altering total APP expression
[2]
  binding to BACE1 (co-immunoprecipitation): binds to BACE1 protein; also recorded: strongly binds to
5XFAD mice [3]
  β-amyloid plaques / 4G8 immunoreactive area: greatly reduced; also recorded: markedly reduced β-amyloid plaques; also recorded: significant differences between TAT-APPsweBBP and TAT peptide treatment groups (**P < 0.01)
[4]
  intracellular versus extracellular distribution in brain: higher intracellular TAT-APPsweBBP distribution; also recorded: prefers to enter into cytoplasm of brain cells
5XFAD mice [5]
  rotarod latency to fall / motor performance: no differences between treatment groups on each day; also recorded: tended to enhance motor activity in 5XFAD mice, as shown by increased latency to fall, but this did not reach a statistical level of significance
5XFAD mice [6]
  detergent-insoluble Aβ1−40/42 in brain: statistically significant decreases; also recorded: significantly reduced
  detergent-soluble Aβ1−40/42 in brain: statistically significant decreases; also recorded: significantly reduced
